The source of these data is patent US20210017174A1, “IDENTIFICATION AND USE OF ERK5 INHIBITOR” (Bayer Aktiengesellschaft, priority 2018, published 2021).

For one assay, the target named is T1, ERK5 (Homo sapiens, UniProt Q13164).
T1 construct: host or cells: E. coli
Nature of the assay: TR-FRET-based Erk5 activity inhibition assay (biochemical assay ERK5). As to conditions: TR-FRET, 250 μM ATP, 1 μM substrate peptide, 60 min at 22° C.; read-out: IC50 value biochemiocal ERK5 asssay.

Assay [1] has as its system SN12C-MEF2-luc (clone #37) reporter cell line. The assay is described as follows: Luciferase reporter assay in SN12C-MEF2-luc cells (EGF-stimulated, MEF2-responsive luciferase).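 Also: serially diluted compounds at 37 °C, EGF with DMSO as maximum signal and EGF with a 10 µM reference inhibitor as minimum (full inhibition).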 It is filed as cell-based. To be noted: Homo sapiens, 16 h compound incubation, then EGF 100 ng/ml for 2 h, ONE-Glo luminescence.

T1 sequence (Q13164 1-398): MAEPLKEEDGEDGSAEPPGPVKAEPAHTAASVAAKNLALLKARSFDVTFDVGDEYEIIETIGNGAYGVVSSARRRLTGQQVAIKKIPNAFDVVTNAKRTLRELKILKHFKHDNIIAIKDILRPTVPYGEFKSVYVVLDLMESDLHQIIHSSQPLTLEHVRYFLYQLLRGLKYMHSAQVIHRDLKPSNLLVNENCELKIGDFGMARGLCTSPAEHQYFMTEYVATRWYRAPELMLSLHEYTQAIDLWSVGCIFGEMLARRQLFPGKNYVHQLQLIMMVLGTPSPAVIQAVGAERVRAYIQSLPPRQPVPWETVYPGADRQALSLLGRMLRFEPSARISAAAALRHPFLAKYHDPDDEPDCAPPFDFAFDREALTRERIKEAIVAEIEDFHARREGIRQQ

For `COc1cc2ncnc(C3CCN(C(=O)c4ccc(OC(C)(C)C)cc4)CC3)c2cc1OC` [Example 25, (4-Tert-butoxyphenyl)[4-(6,7-dimethoxyquinazolin-4-yl)piperidin-1-yl]methanone], the IC50 (in general, the point on the concentration scale where inhibition reaches its midpoint) worked out at 1030 nM at ERK5 and 6830 nM in assay [1].
The corresponding values for `C=CCOc1ccc(C(=O)N2CCC(c3ncnc4cc(OC)c(OC)cc34)CC2)cc1` [Example 27, [4-(6,7-Dimethoxyquinazolin-4-yl)piperidin-1-yl][4-(prop-2-en-1-yloxy)phenyl]-methanone] are 401 nM and 4910 nM.
For `COC(=O)c1ccc2c(C3CCN(C(=O)c4ccc(OC(F)(F)F)cc4)CC3)ncnc2c1` [Example 31, Methyl 4-{1-[4-(trifluoromethoxy)benzoyl]piperidin-4-yl}quinazoline-7-carboxylate], in that order: 579 nM and 14600 nM.
For `CNC(=O)c1ccc2c(C3CCN(C(=O)c4ccc(OC(F)(F)F)cc4)CC3)ncnc2c1` [Example 41, N-Methyl-4-{1-[4-(trifluoromethoxy)benzoyl]piperidin-4-yl}quinazoline-7-carboxamide], in that order: 1090 nM and 7040 nM.
On to `O=C(c1ccc(OC(F)(F)F)cc1)N1CCC(c2ncnc3cc(OCCO)ccc23)CC1` [Example 47, {4-[7-(2-Hydroxyethoxy)quinazolin-4-yl]piperidin-1-yl}[4-(trifluoromethoxy)-phenyl]methanone], for which the IC50 amounted to 110 nM on ERK5 and 2450 nM in assay [1].
The corresponding values for `O=C(c1ccc(OC(F)(F)F)cc1)N1CCC(c2ncnc3cc(OC4CCOCC4)ccc23)CC1` [Example 49, {4-[7-(Tetrahydro-2H-pyran-4-yloxy)quinazolin-4-yl]piperidin-1-yl}[4-(trifluoromethoxy)phenyl]-methanone] are 145 nM and 352 nM.
For `CC(=O)NCCOc1ccc2c(C3CCN(C(=O)c4ccc(OC(F)(F)F)cc4)CC3)ncnc2c1` [Example 50, N-{2-[(4-{1-[4-(Trifluoromethoxy)benzoyl]piperidin-4-yl}quinazolin-7-yl)oxy]ethyl}acetamide], in that order: 167 nM and 387 nM.
The corresponding values for `O=C(c1ccc(OC(F)(F)F)cc1)N1CCC(c2ncnc3cc(C4CC4)ccc23)CC1` [Example 51, [4-(7-Cyclopropylquinazolin-4-yl)piperidin-1-yl][4-(trifluoromethoxy)phenyl]-methanone] are 43 nM and 594 nM.
For the molecule `O=C(c1ccc(OC(F)(F)F)cc1)N1CCC(c2ncnc3cc(C4=CCOCC4)ccc23)CC1` [Example 52, {4-[7-(3,6-Dihydro-2H-pyran-4-yl)quinazolin-4-yl]piperidin-1-yl}[4-(trifluoro-methoxy)phenyl]-methanone], the IC50 on ERK5 is 24.7 nM; in assay [1], 500 nM.
The corresponding values for `O=C(c1ccc(OC(F)(F)F)cc1)N1CCC(c2ncnc3cc(-c4ccn[nH]4)ccc23)CC1` [Example 53, {4-[7-(1H-Pyrazol-5-yl)quinazolin-4-yl]piperidin-1-yl}[4-(trifluoromethoxy)-phenyl]methanone] are 78.1 nM and 627 nM.
For `O=C(c1ccc(OC(F)(F)F)cc1)N1CCC(c2ncnc3cc(N4CCCC4=O)ccc23)CC1` [Example 54, 1-(4-{1-[4-(Trifluoromethoxy)benzoyl]piperidin-4-yl}quinazolin-7-yl)pyrrolidin-2-one], in that order: 190 nM and 942 nM.
For `O=C(c1ccc(OC(F)(F)F)cc1)N1CCC(c2ncnc3cc(OCC(F)F)ccc23)CC1` [Example 64, {4-[7-(2,2-Difluoroethoxy)quinazolin-4-yl]piperidin-1-yl}[4-(trifluoromethoxy)-phenyl]methanone], in that order: 89.8 nM and 694 nM.
Regarding `COc1ccc2c(C3CCN(C(=O)c4ccc(OC(F)(F)F)cc4NC(C)=O)CC3)ncnc2c1` [Example 67, N-[2-{[4-(7-Methoxyquinazolin-4-yl)piperidin-1-yl]carbonyl}-5-(trifluoro-methoxy)phenyl]acetamide], the IC50 was found to be 241 nM at ERK5 and 669 nM in assay [1].
For the molecule `CN1CCC(Nc2cnc3c(C4CCN(C(=O)c5ccc(OC(F)(F)F)cc5)CC4)ncnc3c2)CC1` [Example 71, (4-{7-[(1-Methylpiperidin-4-yl)amino]pyrido[3,2-d]pyrimidin-4-yl}piperidin-1-yl)[4-(trifluoromethoxy)phenyl]methanone], the IC50 at ERK5 was 153 nM; in assay [1], 436 nM.
The corresponding values for `O=C(c1ccc(OC(F)(F)F)cc1)N1CCC(c2ncnc3cc(N4CCC(F)(F)C4)cnc23)CC1` [Example 72, {4-[7-(3,3-Difluoropyrrolidin-1-yl)pyrido[3,2-d]pyrimidin-4-yl]piperidin-1-yl}[4-(trifluoromethoxy)phenyl]methanone] are 69.3 nM and 415 nM.
For the molecule `CC1(N)CCN(c2cnc3c(C4CCN(C(=O)c5ccc(OC(F)(F)F)cc5)CC4)ncnc3c2)CC1` [Example 73, {4-[7-(4-Amino-4-methylpiperidin-1-yl)pyrido[3,2-d]pyrimidin-4-yl]piperidin-1-yl}[4-(trifluoromethoxy)phenyl]methanone], the values for the IC50 (at ERK5; in assay [1]) were 39.1 nM and 253 nM, respectively.
For the molecule `O=C(c1ccc(OC(F)(F)F)cc1)N1CCC(c2ncnc3cc(N4CCC(F)(F)CC4)cnc23)CC1` [Example 77, {4-[7-(4,4-Difluoropiperidin-1-yl)pyrido[3,2-d]pyrimidin-4-yl]piperidin-1-yl}[4-(trifluoromethoxy)phenyl]methanone], the IC50 at ERK5 is 30.3 nM; in assay [1] it was 132 nM.
As to `CC1(C)CN(c2cnc3c(C4CCN(C(=O)c5ccc(OC(F)(F)F)cc5)CC4)ncnc3c2)CCO1` [Example 78, {4-[7-(2,2-Dimethylmorpholin-4-yl)pyrido[3,2-d]pyrimidin-4-yl]piperidin-1-yl}[4-(trifluoromethoxy)phenyl]methanone], the figures for the IC50 (on ERK5; in assay [1]) were 36.3 nM and 103 nM, respectively.
For `COC1CCN(c2cnc3c(C4CCN(C(=O)c5ccc(OC(F)(F)F)cc5)CC4)ncnc3c2)CC1` [Example 79, {4-[7-(4-Methoxypiperidin-1-yl)pyrido[3,2-d]pyrimidin-4-yl]piperidin-1-yl}[4-(trifluoromethoxy)phenyl]methanone], in that order: 49.9 nM and 122 nM.
